Laboratory results as given in article PMC11721617, “Novel isobavachalcone derivatives induce apoptosis and necroptosis in human non-small cell lung cancer H1975 cells” (Journal of Enzyme Inhibition and Medicinal Chemistry, 2023).
Where two headings read alike, the source gives them in different places.

How the values were obtained:
PC9 = assay: MTT assay, cytotoxic activity; format: cell-based; conditions: Homo sapiens, PC-9, PC9 cells, 72 h
Experimental: (§1) Four cell lines (H1975, A549, PC9, and Aml-12) were cultured in RPMI 1640 medium containing 10% foetal bovine serum (FBS) and 1% penicillin/streptomycin in an atmosphere with 5% CO2 and 95% relative humidity at 37 °C.
(§2) Cell viability was examined using the MTT assay. The cells grown in the logarithmic phase were seeded in 96-well plates at a density of 5 × 10^3 per well. The cells were treated with various concentrations (0, 5, 10, 20, 40, and 80 μM) of the compound at different times, respectively. At the end of time point, MTT solution (5 mg/ml) was added to each well and incubated at 37 °C for 4 h. Next, the media was removed, and formazan was dissolved in DMSO. Finally, absorbance was measured with a microplate spectrophotometer at 490 nm (Synergy HT, BioTek, VT, USA).

H1975 = assay: MTT assay, cytotoxic activity / cell viability; format: cell-based, human; conditions: Homo sapiens, NCI-H1975
Experimental: as §1, §2

A549 = assay: MTT assay, cytotoxic activity; format: cell-based, human; conditions: Homo sapiens; A549 cells, 72 h, MTT
Experimental: as §1, §2

[1] = MTT assay, cytotoxic activity on normal hepatocytes; format: cell-based, mouse; conditions: Aml-12 cells (normal hepatocytes); normal mouse hepatocytes Aml-12 cells, 72 h
Experimental: as §1, §2

[2] = H1975 cells, 72 h, MTT, read-out: Cytotoxic activity IC50, H1975

Question: For `CC(C)=CCc1c(O)c(C(=O)/C=C/c2ccc(O)cc2)cc(C(c2ccc(F)cc2)N2CCOCC2)c1O` (stereo not drawn) [Compound 12, (E)-1-(5-((4-Fluorophenyl)(morpholino)methyl)-2,4-dihydroxy-3-(3-methylbut-2-en-1-yl)phenyl)-3-(4-hydroxyphenyl)prop-2-en-1-one], which IC50 (PC9) is on record?
Answer: 20.7 µM

Question: And the IC50 (H1975; [2])?
Answer: 12.1 µM

Question: And the IC50 (A549)?
Answer: 33 µM

Question: For `CC(C)=CCc1c(O)c(C(=O)/C=C/c2ccc(O)cc2)cc(C(c2ccncc2)N2CCOCC2)c1O` (stereo not drawn) [Compound 8, (E)-1-(2,4-Dihydroxy-3-(3-methylbut-2-en-1-yl)-5-(morpholino(pyridin-4-yl)methyl)phenyl)-3-(4-hydroxyphenyl)prop-2-en-1-one], which IC50 (PC9) is on record?
Answer: 29.9 µM

Question: And the IC50 (H1975; [2])?
Answer: 13.8 µM

Question: What about the IC50 (A549) of the same compound?
Answer: 39.2 µM

Question: Which results are given for `COc1ccc(C(=O)/C=C/c2ccc(O)cc2)c(O)c1CC=C(C)C` [Compound 2, (E)-1-(2-Hydroxy-4-methoxy-3-(3-methylbut-2-en-1-yl)phenyl)-3-(4-hydroxyphenyl) prop-2-en-1-one]?
Answer: IC50 (PC9): 35.3 µM; IC50 (H1975; [2]): 40.5 µM; IC50 (A549): > 50 µM

Question: Which IC50 (PC9) does the source give for `CC(C)=CCc1c(OCc2ccccc2)ccc(C(=O)/C=C/c2ccc(OCc3ccccc3)cc2)c1O` [Compound 4, (E)-1-(4-(Benzyloxy)-2-hydroxy-3-(3-methylbut-2-en-1-yl)phenyl)-3-(4-(benzyl-oxy)phenyl)prop-2-en-1-one] here?
Answer: > 50 µM

Question: And the IC50 (H1975; [2])?
Answer: > 50 µM

Question: What about the IC50 (A549) of the same compound?
Answer: > 50 µM

Question: What does the source list for `CC(C)=CCc1c(O)ccc(C(=O)/C=C/c2ccc(OCc3ccccc3)cc2)c1O` [Compound 5, (E)-3-(4-(Benzyloxy)phenyl)-1-(2,4-dihydroxy-3-(3-methylbut-2-en-1-yl)phenyl)prop-2-en-1-one]?
Answer: IC50 (PC9): 24.9 µM; IC50 (H1975; [2]): 13.6 µM; IC50 (A549): 33.1 µM

Question: For `CC(C)=CCc1c(O)ccc(C(=O)/C=C/c2ccc(O)cc2)c1O` [IBC, isobavachalcone], which IC50 (PC9) is on record?
Answer: 9.22 µM

Question: And the IC50 (H1975; [2])?
Answer: 17.9 µM

Question: What about the IC50 at 72 h [1] of the same compound?
Answer: 17.7 ± 1.2 µM

Question: What about the IC50 (A549) of the same compound?
Answer: 21.7 µM

Question: For `CC(C)=CCc1c(O)c(/C=N/NC(=N)N)cc(C(=O)/C=C/c2ccc(O)cc2)c1O` [Compound 7, 2-((E)-2,4-Dihydroxy-5-((E)-3-(4-hydroxyphenyl)acryloyl)-3-(3-methylbut-2-en-1-yl)benzylidene)hydrazine-1-carboximidamide], which IC50 (PC9) is on record?
Answer: 8.3 µM

Question: And the IC50 (H1975; [2])?
Answer: 7.33 µM

Question: What about the IC50 (H1975; read-out: IC50 values against H1975 and A549 cell lines (range over both)) of the same compound?
Answer: 4.35 to 15 µM

Question: What about the IC50 (A549) of the same compound?
Answer: 15 µM

Question: Which IC50 (PC9) does the source give for `CC(=O)O[C@H]1C(=O)[C@@]2(C)[C@H]([C@H](OC(=O)c3ccccc3)[C@]3(O)C[C@H](OC(=O)[C@H](O)[C@@H](NC(=O)c4ccccc4)c4ccccc4)C(C)=C1C3(C)C)[C@]1(OC(C)=O)CO[C@@H]1C[C@@H]2O` [Paclitaxel, reference compound] here?
Answer: 0.06 µM

Question: What about the IC50 (H1975; [2]) of the same compound?
Answer: 0.01 µM

Question: And the IC50 at 72 h [1]?
Answer: 2.51 ± 0.13 µM

Question: What about the IC50 (A549) of the same compound?
Answer: 1.61 µM

Question: With `COc1ccc(/C=C/C(=O)c2ccc(O)c(CC=C(C)C)c2O)cc1` [Compound 1, (E)-1-(2,4-Dihydroxy-3-(3-methylbut-2-en-1-yl)phenyl)-3-(4-methoxyphenyl)prop-2-en-1-one] as the compound, how does the IC50 (PC9) read?
Answer: 14.3 µM

Question: What about the IC50 (H1975; [2]) of the same compound?
Answer: 38 µM

Question: What about the IC50 (A549) of the same compound?
Answer: 41.6 µM

Question: Which IC50 (PC9) does the source give for `CC(C)=CCc1c(O)c(C(=O)/C=C/c2ccc(O)cc2)cc(C(c2ccc(C(=O)O)cc2)N2CCOCC2)c1O` (stereo not drawn) [Compound 14, (E)-4-((2,4-Dihydroxy-5-(3-(4-hydroxyphenyl)acryloyl)-3-(3-methylbut-2-en-1-yl)phenyl)(morpholino)methyl)benzoic acid] here?
Answer: > 50 µM

Question: And the IC50 (H1975; [2])?
Answer: 23.6 µM

Question: What about the IC50 (A549) of the same compound?
Answer: > 50 µM

Question: With `CC(C)=CCc1c(O)c(C(=O)/C=C/c2ccc(O)cc2)cc(C(c2ccccc2)N2CCOCC2)c1O` (stereo not drawn) [Compound 9, (E)-1-(2,4-Dihydroxy-3-(3-methylbut-2-en-1-yl)-5-(morpholino(phenyl)methyl)phenyl)-3-(4-hydroxyphenyl)prop-2-en-1-one] as the compound, how does the IC50 (PC9) read?
Answer: 22.8 µM

Question: What about the IC50 (H1975; [2]) of the same compound?
Answer: 12.1 µM

Question: And the IC50 (A549)?
Answer: 26.9 µM

Question: With `CC(C)=CCc1c(O)c(C(=O)/C=C/c2ccc(O)cc2)cc(C(c2ccc(Cl)cc2)N2CCOCC2)c1O` (stereo not drawn) [Compound 11, (E)-1-(5-((4-Chlorophenyl)(morpholino)methyl)-2,4-dihydroxy-3-(3-methylbut-2-en-1-yl)phenyl)-3-(4-hydroxyphenyl)prop-2-en-1-one] as the compound, how does the IC50 (PC9) read?
Answer: 19.7 µM

Question: What about the IC50 (H1975; [2]) of the same compound?
Answer: 11.4 µM

Question: What about the IC50 (A549) of the same compound?
Answer: 21.8 µM

Question: For `COc1ccc(C(c2cc(C(=O)/C=C/c3ccc(O)cc3)c(O)c(CC=C(C)C)c2O)N2CCOCC2)cc1` (stereo not drawn) [Compound 15, (E)-1-(2,4-Dihydroxy-5-((4-methoxyphenyl)(morpholino)methyl)-3-(3-methylbut-2-en-1-yl)phenyl)-3-(4-hydroxyphenyl)prop-2-en-1-one], which IC50 (PC9) is on record?
Answer: 23.2 µM

Question: What about the IC50 (H1975; [2]) of the same compound?
Answer: 11.7 µM

Question: What about the IC50 (A549) of the same compound?
Answer: 28.9 µM

Question: For `CC(C)=CCc1c(O)c(C=O)cc(C(=O)/C=C/c2ccc(O)cc2)c1O` [Compound 6, (E)-2,4-Dihydroxy-5-(3-(4-hydroxyphenyl)acryloyl)-3-(3-methylbut-2-en-1-yl)benzylaldehyde], which IC50 (PC9) is on record?
Answer: 18.4 µM

Question: What about the IC50 (H1975; [2]) of the same compound?
Answer: 5.79 µM

Question: And the IC50 (A549)?
Answer: 24.1 µM

Question: With `CC(C)=CCc1c(O)c(C(=O)/C=C/c2ccc(O)cc2)cc(C(c2ccc([N+](=O)[O-])cc2)N2CCOCC2)c1O` (stereo not drawn) [Compound 13, (E)-1-(2,4-Dihydroxy-3-(3-methylbut-2-en-1-yl)-5-(morpholino(4-nitrophenyl)methyl)phenyl)-3-(4-hydroxyphenyl)prop-2-en-1-one] as the compound, how does the IC50 (PC9) read?
Answer: 23.5 µM

Question: What about the IC50 (H1975; [2]) of the same compound?
Answer: 7.39 µM

Question: What about the IC50 (A549) of the same compound?
Answer: 44.5 µM

Question: For `COc1ccc(/C=C/C(=O)c2ccc(OC)c(CC=C(C)C)c2O)cc1` [Compound 3, (E)-1-(2-Hydroxy-4-methoxy-3-(3-methylbut-2-en-1-yl)phenyl)-3-(4-methoxyphenyl) prop-2-en-1-one], which IC50 (PC9) is on record?
Answer: > 50 µM

Question: And the IC50 (H1975; [2])?
Answer: > 50 µM

Question: What about the IC50 (A549) of the same compound?
Answer: > 50 µM

Question: Which results are given for `CC(C)=CCc1c(O)c(C(=O)/C=C/c2ccc(O)cc2)cc(C(c2ccc(C(F)(F)F)cc2)N2CCOCC2)c1O` (stereo not drawn) [Compound 17, (E)-1-(2,4-Dihydroxy-3-(3-methylbut-2-en-1-yl)-5-(morpholino(4-(trifluoromethyl)phenyl)methyl)phenyl)-3-(4-hydroxyphenyl)prop-2-en-1-one]?
Answer: IC50 (PC9): 20.6 µM; IC50 (H1975; [2]): 7.01 µM; IC50 (A549): 30.1 µM

Question: Which results are given for `CC(C)=CCc1c(O)c(C(=O)/C=C/c2ccc(O)cc2)cc(C(c2ccc(Br)cc2)N2CCOCC2)c1O` (stereo not drawn) [Compound 10, (E)-1-(5-((4-Bromophenyl)(morpholino)methyl)-2,4-dihydroxy-3-(3-methylbut-2-en-1-yl)phenyl)-3-(4-hydroxyphenyl)prop-2-en-1-one]?
Answer: IC50 (PC9): 18.6 µM; IC50 (H1975; [2]): 6.76 µM; IC50 (A549): 34.8 µM
